Experimental data taken from patent US20230026259A1, “CA2 COMPOSITIONS AND METHODS FOR TUNABLE REGULATION” (Obsidian Therapeutics, Inc., priority 2019, published 2023).

How the values were obtained:
Format in all cases: cell-based
[1] = system: NIH3T3 cells; test: Immunoblotting of cell lysates for GFP after ligand treatment; conditions: 24 hours; for GFP protein expression by immunoblot, Acetazolamide: NIH3T3 cells, 0.3, 1, 3, 10 or 30 μM Acetazolamide; for GFP protein expression by immunoblot, Celecoxib or Valdecoxib: NIH3T3 cells, 1, 3, 10 or 30 μM Celecoxib or Valdecoxib
Procedure: The protein expression in the presence of ligand was measured by immunoblotting the cell lysates for GFP.
The protein expression in the presence of ligand was measured by immunoblotting cell lysates for GFP.

[2] = system: NIH3T3 cells; test: Destabilization mutant screening of human CA2 linked to GFP, ligand response by FACS (Valdecoxib, Celecoxib, Acetazolamide); conditions: for stabilization with varying doses of Valdecoxib or Celecoxib: NIH3T3 cells, FACS
Procedure: To identify destabilizing mutations of human CA2 that are stabilized upon ligand binding to CA2, two rounds of mutant screening were performed, using a lentivirus CA2 mutant library provided by Genscript (China). These methods were used to generate a library of mutant polypeptides using mutagenesis primers and error prone PCR. Lentiviral vectors expressing the template, wild-type human CA2 operably linked to GFP(OT-001986) was also provided by Genscript along with the CA2 mutant library. The library was packaged into lentivirus, transduced into NIH3T3 cells at a multiplicity of infection (MOI) of approximately 0.3 and select stable cell pools were derived by selecting with selection marker puromycin.
To identify cell pools containing destabilizing mutants of CA2 that are stabilizing when CA2 is bound to its corresponding ligand, cells were sorted using FACS. In the initial round, the bottom 15% of population that was GFP negative in the absence of ligand was selected. Cells were expanded and then treated with 10 μM Celecoxib for 24 hours and harvested for cell sorting. The top 11% GFP positive cells which were also responsive to ligand treatment compared to untreated were collected. Celecoxib was removed from the cultures and replaced with DMSO. […] Genomic DNA was isolated and amplified CA2 mutants were reintroduced to the lentiviral vectors where CA2 was operably linked to GFP. The constructs were transduced into NIH3T3 cells with lentivirus vectors for each clone. The cells were treated with 10 μM Valdecoxib or 10 μM Celecoxib for 24 hours and analyzed by FACS. […] In Table 25, the Construct ID (OT-XXXXXX) refers to the construct which includes the referenced CA2 mutant and the Library ID (LibCXXXXXX) refers to the CA2 mutant itself.
The response of NIH3T3 cells to varying doses of Valdecoxib or Celecoxib for 24 hours was measured and analyzed by FACS.
Clones treated with different ligands were compared to examine the behavior of each mutant with the ligands.

[3] = system: NIH3T3 cells; test: as above
[4] = NIH3T3, 10 μM Celecoxib vs DMSO
[5] = NIH3T3, 10 μM Valdecoxib vs DMSO
[6] = NIH3T3, Acetazolamide 0.03 μM, 24 hours
[7] = NIH3T3, Acetazolamide 0.1 μM vs DMSO
[8] = NIH3T3, Acetazolamide 0.1 μM, 24 hours
[9] = NIH3T3, Acetazolamide 0.3 μM vs DMSO
[10] = NIH3T3, Acetazolamide 0.3 μM, 24 hours
[11] = NIH3T3, Acetazolamide 1 μM vs DMSO
[12] = NIH3T3, Acetazolamide 1 μM, 24 hours
[13] = NIH3T3, Acetazolamide 3 μM vs DMSO
[14] = NIH3T3, Acetazolamide 3 μM, 24 hours
[15] = NIH3T3, Acetazolamide 10 μM vs DMSO
[16] = NIH3T3, Acetazolamide 10 μM, 24 hours
[17] = NIH3T3, Acetazolamide 30 μM vs DMSO
[18] = NIH3T3, Acetazolamide 30 μM, 24 hours
[19] = NIH3T3, Celecoxib 0 μM, 24 hours
[20] = NIH3T3, Celecoxib 0.03 μM, 24 hours
[21] = NIH3T3, Celecoxib 0.1 μM, 24 hours
[22] = NIH3T3, Celecoxib 0.3 μM, 24 hours
[23] = NIH3T3, Celecoxib 1 μM, 24 hours
[24] = NIH3T3, Celecoxib 3 μM, 24 hours
[25] = NIH3T3, Celecoxib 10 μM, 24 hours
[26] = NIH3T3, Celecoxib 30 μM, 24 hours
[27] = NIH3T3, Celecoxib μM (concentration not given)
[28] = NIH3T3, DMSO, 24 hours (Acetazolamide experiment)
[29] = NIH3T3, Valdecoxib 0 μM, 24 hours
[30] = NIH3T3, Valdecoxib 0.03 μM, 24 hours
[31] = NIH3T3, Valdecoxib 0.1 μM, 24 hours
[32] = NIH3T3, Valdecoxib 0.3 μM, 24 hours
[33] = NIH3T3, Valdecoxib 1 μM, 24 hours
[34] = NIH3T3, Valdecoxib 3 μM, 24 hours
[35] = NIH3T3, Valdecoxib 10 μM, 24 hours
[36] = NIH3T3, Valdecoxib 30 μM, 24 hours
[37] = NIH3T3, Valdecoxib μM (concentration not given)
[38] = NIH3T3, Acetazolamide 0.03 μM vs DMSO
[39] = NIH3T3, DMSO (reference), Acetazolamide experiment

For “CA2 (aa 2-260 of WT, L156H) [LibC000208]”, the “GFP protein expression by immunoblot, Acetazolamide” value [1] was “stabilization of GFP with increasing ligand doses”, the “GFP protein expression by immunoblot, Celecoxib or Valdecoxib” value [1] was “stabilization of GFP with increasing ligand doses” and the “Median PE” value ([2]; NIH3T3, 10 μM Celecoxib) was 8690. For the same substance, the “SR (stabilization ratio)” value [2, 4] was 9.38, the “Median PE” value ([2]; NIH3T3, 10 μM Valdecoxib) was 8006 and the “SR (stabilization ratio)” value [2, 5] was 8.65. For the same substance, the “Median FITC / Median PE” value [2, 6] was 1190, the Fold change [2, 7] was 2.82 and the “Median FITC / Median PE” value [2, 8] was 2137. The Fold change [2, 9] was 6.23, the “Median FITC / Median PE” value [2, 10] was 4715 and the Fold change [2, 11] was 13.17. The “Median FITC / Median PE” value [2, 12] was 9970, the Fold change [2, 13] was 18.36 and the “Median FITC / Median PE” value [2, 14] was 13900. The “MFI, comparative analysis” value ([2]; NIH3T3, Acetazolamide 10 μM) was 16900, the Fold change [2, 15] was 22.32 and the “Median FITC / Median PE” value [2, 16] was 16900. The “MFI, comparative analysis” value ([2]; NIH3T3, Acetazolamide 30 μM) was 17800, the Fold change [2, 17] was 23.51 and the “Median FITC / Median PE” value [2, 18] was 17800. For the same substance, the “Med (median fluorescence intensity)” value [2, 19] was 906, the “SR (stabilization ratio)” value [2, 19] was 1 and the “Med (median fluorescence intensity)” value [2, 20] was 1017. The “SR (stabilization ratio)” value [2, 20] was 1.12, the “Med (median fluorescence intensity)” value [2, 21] was 1194 and the “SR (stabilization ratio)” value [2, 21] was 1.32. For the same substance, the “Med (median fluorescence intensity)” value [2, 22] was 1457, the “SR (stabilization ratio)” value [2, 22] was 1.61 and the “Med (median fluorescence intensity)” value [2, 23] was 2221. The “SR (stabilization ratio)” value [2, 23] was 2.45, the “Med (median fluorescence intensity)” value [2, 24] was 5404 and the “SR (stabilization ratio)” value [2, 24] was 5.96. The “Med (median fluorescence intensity)” value [2, 25] was 9766, the “SR (stabilization ratio)” value [2, 25] was 10.78 and the “Med (median fluorescence intensity)” value [2, 26] was 13200. The “SR (stabilization ratio)” value [2, 26] was 14.57, the “MFI, comparative analysis, normalized to parental day 1” value (“MFI, comparative analysis, normalized” below) [2, 27] was 8707.036 and the “MFI, comparative analysis” value ([2]; NIH3T3, DMSO) was 757. The “Median PE” value ([2]; NIH3T3, DMSO) was 926, the “SR (stabilization ratio)” value ([2]; NIH3T3, DMSO (reference)) was 1 and the “Median FITC / Median PE” value [2, 28] was 757. The “Med (median fluorescence intensity)” value [2, 29] was 906, the “SR (stabilization ratio)” value [2, 29] was 1 and the “Med (median fluorescence intensity)” value [2, 30] was 1049. The “SR (stabilization ratio)” value [2, 30] was 1.16, the “Med (median fluorescence intensity)” value [2, 31] was 1131 and the “SR (stabilization ratio)” value [2, 31] was 1.25. The “Med (median fluorescence intensity)” value [2, 32] was 1219, the “SR (stabilization ratio)” value [2, 32] was 1.35 and the “Med (median fluorescence intensity)” value [2, 33] was 1747. The “SR (stabilization ratio)” value [2, 33] was 1.93, the “Med (median fluorescence intensity)” value [2, 34] was 3603 and the “SR (stabilization ratio)” value [2, 34] was 3.98. The “Med (median fluorescence intensity)” value [2, 35] was 8284, the “SR (stabilization ratio)” value [2, 35] was 9.14 and the “Med (median fluorescence intensity)” value [2, 36] was 11300. For the same substance, the “SR (stabilization ratio)” value [2, 36] was 12.48, the “MFI, comparative analysis, normalized” value [2, 37] was 7385.735 and the “stabilization with varying doses of Valdecoxib or Celecoxib” value ([2]; 24 hours) was “dose dependent stabilization”. The Fold change [3, 38] was 1.57, the Fold change [3, 39] was 1 and the “GFP expression with varying doses of Acetazolamide” value ([3]; NIH3T3 cells, 24 hours, FACS) was “dose response stabilization of GFP expression”.
For “CA2 (aa 2-260 of WT, L156H, S172C, F178Y, E186D) [LibC000193]”, the “GFP protein expression by immunoblot, Acetazolamide” value [1] was “stabilization of GFP with increasing ligand doses”, the “GFP protein expression by immunoblot, Celecoxib or Valdecoxib” value [1] was “stabilization of GFP with increasing ligand doses” and the “Median PE” value ([2]; NIH3T3, 10 μM Celecoxib) was 7428. For the same substance, the “SR (stabilization ratio)” value [2, 4] was 10.71, the “Median PE” value ([2]; NIH3T3, 10 μM Valdecoxib) was 6445 and the “SR (stabilization ratio)” value [2, 5] was 9.3. The “Median FITC / Median PE” value [2, 6] was 854, the Fold change [2, 7] was 2.92 and the “Median FITC / Median PE” value [2, 8] was 1628. For the same substance, the Fold change [2, 9] was 6.59, the “Median FITC / Median PE” value [2, 10] was 3669 and the Fold change [2, 11] was 13.34. The “Median FITC / Median PE” value [2, 12] was 7445, the Fold change [2, 13] was 18.31 and the “Median FITC / Median PE” value [2, 14] was 10200. The “MFI, comparative analysis” value ([2]; NIH3T3, Acetazolamide 10 μM) was 11900, the Fold change [2, 15] was 21.36 and the “Median FITC / Median PE” value [2, 16] was 11900. For the same substance, the “MFI, comparative analysis” value ([2]; NIH3T3, Acetazolamide 30 μM) was 12900, the Fold change [2, 17] was 23.16 and the “Median FITC / Median PE” value [2, 18] was 12900. For the same substance, the “Med (median fluorescence intensity)” value [2, 19] was 826, the “SR (stabilization ratio)” value [2, 19] was 1 and the “Med (median fluorescence intensity)” value [2, 20] was 935. The “SR (stabilization ratio)” value [2, 20] was 1.13, the “Med (median fluorescence intensity)” value [2, 21] was 1005 and the “SR (stabilization ratio)” value [2, 21] was 1.22. The “Med (median fluorescence intensity)” value [2, 22] was 1211, the “SR (stabilization ratio)” value [2, 22] was 1.47 and the “Med (median fluorescence intensity)” value [2, 23] was 2058. For the same substance, the “SR (stabilization ratio)” value [2, 23] was 2.49, the “Med (median fluorescence intensity)” value [2, 24] was 4283 and the “SR (stabilization ratio)” value [2, 24] was 5.19. For the same substance, the “Med (median fluorescence intensity)” value [2, 25] was 7751, the “SR (stabilization ratio)” value [2, 25] was 9.38 and the “Med (median fluorescence intensity)” value [2, 26] was 11100. The “SR (stabilization ratio)” value [2, 26] was 13.44, the “MFI, comparative analysis, normalized” value [2, 27] was 6910.53 and the “MFI, comparative analysis” value ([2]; NIH3T3, DMSO) was 557. For the same substance, the “Median PE” value ([2]; NIH3T3, DMSO) was 693, the “SR (stabilization ratio)” value ([2]; NIH3T3, DMSO (reference)) was 1 and the “Median FITC / Median PE” value [2, 28] was 557. For the same substance, the “Med (median fluorescence intensity)” value [2, 29] was 826, the “SR (stabilization ratio)” value [2, 29] was 1 and the “Med (median fluorescence intensity)” value [2, 30] was 932. For the same substance, the “SR (stabilization ratio)” value [2, 30] was 1.13, the “Med (median fluorescence intensity)” value [2, 31] was 1013 and the “SR (stabilization ratio)” value [2, 31] was 1.23. For the same substance, the “Med (median fluorescence intensity)” value [2, 32] was 1064, the “SR (stabilization ratio)” value [2, 32] was 1.29 and the “Med (median fluorescence intensity)” value [2, 33] was 1583. The “SR (stabilization ratio)” value [2, 33] was 1.92, the “Med (median fluorescence intensity)” value [2, 34] was 3667 and the “SR (stabilization ratio)” value [2, 34] was 4.44. For the same substance, the “Med (median fluorescence intensity)” value [2, 35] was 7449, the “SR (stabilization ratio)” value [2, 35] was 9.02 and the “Med (median fluorescence intensity)” value [2, 36] was 9460. For the same substance, the “SR (stabilization ratio)” value [2, 36] was 11.45, the “MFI, comparative analysis, normalized” value [2, 37] was 6641.277 and the “stabilization with varying doses of Valdecoxib or Celecoxib” value ([2]; 24 hours) was “dose dependent stabilization”. The Fold change [3, 38] was 1.53 and the Fold change [3, 39] was 1.
